One may read the IC50 as the concentration that gives 50% inhibition.

This experiment concerns the target T1, 3-oxo-5-alpha-steroid 4-dehydrogenase 1 (Homo sapiens, UniProt P18405).
T1 sequence (P18405 whole entry): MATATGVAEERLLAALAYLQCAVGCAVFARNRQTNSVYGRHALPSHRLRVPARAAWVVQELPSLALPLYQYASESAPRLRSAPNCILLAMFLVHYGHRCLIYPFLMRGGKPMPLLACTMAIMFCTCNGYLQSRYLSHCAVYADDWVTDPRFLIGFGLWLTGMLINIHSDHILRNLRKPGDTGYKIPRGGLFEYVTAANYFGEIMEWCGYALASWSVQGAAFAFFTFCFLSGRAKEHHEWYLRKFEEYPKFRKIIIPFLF
The experiment in a line: Inhibition of human Steroid 5-alpha-reductase type I.
In the case of `C[C@@H]1C[C@H]2CC(=O)C=CN2c2ccc(Cl)cc21`, the IC50 was found to be 188 nM.

Compound `CC(C)CCCC(C)[C@H]1CCC2C3C(CC[C@@]21C)[C@@]1(C)CCC(=O)N(C)C1C[C@@H]3C` (some centres not stated) registered an IC50 of 0.5 nM.

The compound `C[C@H]1Cc2cc(Cl)ccc2N2CCC(=O)C=C12` yielded an IC50 of 346 nM.

Regarding `O=C1C=C2CCc3cc(Cl)ccc3N2CC1`, the IC50 was found to be 49 nM.

For `O=C1C=CN2c3ccc(Cl)cc3CC[C@H]2C1`, the IC50 stood at 459 nM.

`C[C@@H]1CC2=CC(=O)CCN2c2ccc(Cl)cc21` displayed a half-maximal inhibitory concentration (IC50) of 14.4 nM.

In turn, `C[C@H]1Cc2cc(Cl)ccc2N2C=CC(=O)C[C@H]12` came in with an IC50 of 9100 nM.

Values taken from ChEMBL document CHEMBL1133393, “Synthesis of 8-chloro-benzo[c]quinolizin-3-ones as potent and selective inhibitors of human steroid 5alpha-reductase 1” (Bioorg Med Chem Lett, 2000).
